This passage reports Activity, IC50 and inhibition results from ChEMBL document CHEMBL5385886, “Design, synthesis and evaluation of nitric oxide releasing derivatives of 2,4-diaminopyrimidine as novel FAK inhibitors for intervention of metastatic triple-negative breast cancer” (Eur J Med Chem, 2023).

Molecules are shown by their SMILES. Activity calls are given as the source filed them. No cut-off for these calls is given here.

As usually defined, the IC50 is the concentration needed to halve the response being measured. The term inhibition denotes the share of the control response that was lost under treatment.

Test [1] relates to MDA-MB-231. The test can be described thus: Antiproliferative activity against human MDA-MB-231 cells assessed as inhibition of cell proliferation at 5 to 20 uM incubated for 72 hrs by MTT assay. The format is functional, cell-based. As to conditions: dose 5-20 µM. For orientation: Tetrazolium assays rely on reduction of a dye to a coloured formazan, in cell work by metabolically active cells.

For test [2], the system named is MDA-MB-453. Nature of the test: Antiproliferative activity against human MDA-MB-453 cells assessed as inhibition of cell proliferation incubated for 72 hrs by MTT assay. The format is functional, cell-based. As to conditions: MDA-MB-453, 72 h.
The test system of test [3] is MDA-MB-157. The test can be described thus: Antiproliferative activity against human MDA-MB-157 cells assessed as inhibition of cell proliferation incubated for 72 hrs by MTT assay. The note with it: MDA-MB-157, 72 h. The format is functional, cell-based.
For test [4], the system named is MDA-MB-231. The test can be described thus: Antiproliferative activity against human MDA-MB-231 cells assessed as inhibition of cell proliferation at 5 uM incubated for 72 hrs by MTT assay relative to control. It counts as functional.
The subject of test [5] is MDA-MB-231. The test can be described thus: Induction of NO production in human MDA-MB-231 cells at 4 uM incubated for 72 hrs by DAF-FM-DA dye based flow cytometry analysis. It counts as functional, cell-based. Background: A flow cytometer gives signals particle by particle.
Test [6] concerns MDA-MB-231. The test can be described thus: Antiproliferative activity against human MDA-MB-231 cells assessed as inhibition of cell proliferation incubated for 72 hrs by MTT assay. It counts as functional, cell-based. As to conditions: MDA-MB-231, 72 h.
Test [7] addresses Focal adhesion kinase 1 (Homo sapiens, UniProt Q05397). Nature of the test: Inhibition of FAK (unknown origin).

Chain of Focal adhesion kinase 1 (Q05397 whole entry): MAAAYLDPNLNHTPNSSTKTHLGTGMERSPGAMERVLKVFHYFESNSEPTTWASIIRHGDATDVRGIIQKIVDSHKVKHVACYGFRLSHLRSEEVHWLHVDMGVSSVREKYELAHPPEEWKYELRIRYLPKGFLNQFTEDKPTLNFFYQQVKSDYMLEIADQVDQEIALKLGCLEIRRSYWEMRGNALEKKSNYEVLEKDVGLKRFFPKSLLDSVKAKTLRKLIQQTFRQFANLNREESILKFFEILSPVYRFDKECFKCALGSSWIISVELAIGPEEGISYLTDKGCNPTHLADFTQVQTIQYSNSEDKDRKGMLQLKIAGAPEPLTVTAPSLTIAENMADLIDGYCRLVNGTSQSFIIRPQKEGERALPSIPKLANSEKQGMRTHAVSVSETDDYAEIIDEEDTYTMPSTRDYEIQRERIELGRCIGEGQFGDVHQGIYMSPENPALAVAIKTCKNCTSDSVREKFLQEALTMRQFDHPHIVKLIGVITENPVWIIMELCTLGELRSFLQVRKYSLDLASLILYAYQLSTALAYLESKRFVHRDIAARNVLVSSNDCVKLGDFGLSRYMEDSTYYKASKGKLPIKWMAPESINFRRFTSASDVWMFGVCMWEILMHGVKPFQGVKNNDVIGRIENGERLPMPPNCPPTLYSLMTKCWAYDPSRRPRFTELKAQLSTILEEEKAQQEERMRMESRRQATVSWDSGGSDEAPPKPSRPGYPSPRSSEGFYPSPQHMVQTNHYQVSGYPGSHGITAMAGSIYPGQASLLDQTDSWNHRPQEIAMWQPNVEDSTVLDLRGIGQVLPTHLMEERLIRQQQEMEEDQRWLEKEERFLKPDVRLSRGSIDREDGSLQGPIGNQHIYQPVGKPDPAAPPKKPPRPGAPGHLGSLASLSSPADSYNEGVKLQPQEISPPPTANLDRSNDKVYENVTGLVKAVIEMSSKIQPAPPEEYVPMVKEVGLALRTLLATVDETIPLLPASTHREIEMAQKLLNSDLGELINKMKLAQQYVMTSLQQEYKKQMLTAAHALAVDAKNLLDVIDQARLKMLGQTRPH

`CC1(C)N(O)C(c2ccc(C(=O)O)cc2)=[N+]([O-])C1(C)C`: the outcome in test [1] was inactive.
Regarding `CNC(=O)c1ccccc1Nc1nc(Nc2ccc(CC(=O)OCC(C)COc3no[n+]([O-])c3S(=O)(=O)c3ccccc3)cc2)ncc1Cl` (configuration not stated), the IC50 in test [2] is 0.255 µM; in test [3] it was 0.275 µM; in test [6] it was 0.225 µM; in test [7], 0.066 µM. Also, in test [4], the inhibition at 5 µM was more than 92%. Moreover, in test [5], the outcome was Active.
